For one series, the system named is PBMC. Put plainly: cytotoxicity (CC95) in PBMC, same anti-HIV study.
The next series deals with HIVNL4-3. As to the kind of experiment: anti-HIV data in PBMC for the clinical isolate HIVNL4-3. It counts as cell-based.
Another series is described as follows: physchem. The following applies: buffer, pH 7.4.
Another series is described as follows: in vitro. The following applies: human, pooled liver microsomes. On the technique in general: Liver microsomes are a subcellular fraction often used to study metabolism.

Like-named read-outs stand apart in the source and are kept apart here. Some results are limits rather than exact numbers.

A word on the EC95: it is the concentration at which the effect reaches the 95% level. Low readings indicate an effect from little substance, high ones a need for much substance. On to `Cc1cn([C@H]2C[C@H](N=[N+]=[N-])[C@@H](CO)O2)c(=O)[nH]c1=O` [AZT, Zidovudine, reference compound], for which, in the series with PBMC, the CC95 is > 1000 nM. In the series on HIVNL4-3 (AZT in the same study), the EC95 is recorded as 9.42 nM.

The half-life is how long it takes for the measured level to halve. For `O=C(O)/C(O)=C/C(=O)c1cc(Cc2ccccc2)cn(Cc2ccccc2)c1=O` [Compound 8], the values for the half-life in the series “physchem” and in the series “in vitro” were > 41 h and > 6 h, respectively. Further, in the series with PBMC, the CC95 was > 200000 nM. The compound also had a concentration for an effect of 95% (EC95) with HIVNL4-3 of 610 nM.

The record behind these values is US20100092427A1, “Pyridinone Diketo Acids: Inhibitors of HIV Replication in Combination Therapy” (THE UNIVERSITY OF GEORGIA RESEARCH FOUNDATION, priority 2006, published 2010).
